In patent US11377423B2, “Inhibitors of histone deacetylase” (The Broad Institute, Inc., priority 2012, dated 2022):
Read-outs that look alike come from different tables or passages of the source.

Assays:
HDAC1 [1] = molecular target: T1, HDAC1 (Homo sapiens (Human), UniProt Q13547); test: Kinetics of the inhibition of HDAC1; conditions: HDAC1 residence
[2] = system: human megakaryocyte progenitors; test: Growth of human megakaryocyte progenitors (surrogate assay for platelet depletion); format: cell-based
Protocol: Compounds of the invention were evaluated for their effect on the growth of human megakaryocyte progenitors (surrogate assay for platelet depletion). Human CD34+ cells were grown in a collagen-based gel (Megacult-C, Stemcell Technologies). […] 100% indicates no difference in cell viability relative to the DMSO treated cells. […] This is the desired effect.

HDAC2 [3] = molecular target: T2, HDAC2 (Homo sapiens (Human), UniProt Q92769)
T2 sequence (Q92769 whole entry): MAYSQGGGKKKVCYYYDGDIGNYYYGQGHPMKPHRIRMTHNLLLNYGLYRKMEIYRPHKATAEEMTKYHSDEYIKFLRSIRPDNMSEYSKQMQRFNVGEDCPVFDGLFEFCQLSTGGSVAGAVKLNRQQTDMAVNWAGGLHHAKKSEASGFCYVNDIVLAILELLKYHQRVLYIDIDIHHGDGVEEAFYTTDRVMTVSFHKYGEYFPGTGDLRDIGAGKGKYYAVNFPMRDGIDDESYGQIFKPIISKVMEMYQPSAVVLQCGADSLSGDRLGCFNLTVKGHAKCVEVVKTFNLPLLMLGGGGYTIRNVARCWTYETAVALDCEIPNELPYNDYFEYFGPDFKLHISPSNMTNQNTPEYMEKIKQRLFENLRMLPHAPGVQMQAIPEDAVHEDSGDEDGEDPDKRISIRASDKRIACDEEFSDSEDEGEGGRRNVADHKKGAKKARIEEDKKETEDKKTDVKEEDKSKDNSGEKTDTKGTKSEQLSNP

HDAC2 [4] = molecular target: T2, HDAC2; test: Caliper HDAC enzymatic endpoint assay, HDAC2; format: biochemical; conditions: read-out: HDAC2 IC50 3 h Prein; Table 2, 3 h preincubation
[5] = system: HDACs 1, 2, 3, 4, 5, 6, 7, 8, and 9; test: HDAC selectivity panel (Caliper), isoform selectivity; conditions: from IC50 values
HDAC1 [6] = molecular target: T1, HDAC1; test: Caliper HDAC enzymatic endpoint assay, HDAC1; format: biochemical; conditions: read-out: HDAC1 IC50 3 h Prein; Table 2, 3 h preincubation
HDAC3 = HDAC3 (Homo sapiens (Human), UniProt O15379); test: Caliper HDAC enzymatic endpoint assay, HDAC3; format: biochemical; conditions: read-out: HDAC3 IC50 3 h Prein; Table 2, 3 h preincubation
Sequence of HDAC3 (O15379 whole entry): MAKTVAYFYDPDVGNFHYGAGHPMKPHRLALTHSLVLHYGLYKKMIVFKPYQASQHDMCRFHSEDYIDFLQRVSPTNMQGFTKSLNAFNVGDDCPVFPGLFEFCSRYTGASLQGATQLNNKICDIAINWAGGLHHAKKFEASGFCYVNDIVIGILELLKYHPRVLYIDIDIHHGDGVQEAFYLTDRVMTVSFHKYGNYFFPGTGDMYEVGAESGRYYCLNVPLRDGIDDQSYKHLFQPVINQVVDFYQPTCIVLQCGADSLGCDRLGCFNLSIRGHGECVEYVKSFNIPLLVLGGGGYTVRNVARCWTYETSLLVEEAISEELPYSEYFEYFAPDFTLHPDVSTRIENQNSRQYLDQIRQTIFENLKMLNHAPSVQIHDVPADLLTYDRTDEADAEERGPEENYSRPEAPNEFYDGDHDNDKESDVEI
Sequence of HDAC3 (Q9Y618 395-489 partner): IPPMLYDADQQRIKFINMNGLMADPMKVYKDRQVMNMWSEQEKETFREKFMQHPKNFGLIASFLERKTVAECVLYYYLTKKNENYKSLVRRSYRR

[7] = Brain and plasma concentration in mice; format: in vivo; conditions: for half-life: mouse, other: injected (site of injection not given)
Protocol: Specifically, mice were injected with a single dose of compound and the concentration of compound was measured in the brain and plasma of mice at 8 time points. The samples were analyzed by LC-MS/MS.

[8] = mice, single dose, Repligen 136 30 mg/kg, Compound 1 10 mg/kg

T1 sequence (Q13547 whole entry): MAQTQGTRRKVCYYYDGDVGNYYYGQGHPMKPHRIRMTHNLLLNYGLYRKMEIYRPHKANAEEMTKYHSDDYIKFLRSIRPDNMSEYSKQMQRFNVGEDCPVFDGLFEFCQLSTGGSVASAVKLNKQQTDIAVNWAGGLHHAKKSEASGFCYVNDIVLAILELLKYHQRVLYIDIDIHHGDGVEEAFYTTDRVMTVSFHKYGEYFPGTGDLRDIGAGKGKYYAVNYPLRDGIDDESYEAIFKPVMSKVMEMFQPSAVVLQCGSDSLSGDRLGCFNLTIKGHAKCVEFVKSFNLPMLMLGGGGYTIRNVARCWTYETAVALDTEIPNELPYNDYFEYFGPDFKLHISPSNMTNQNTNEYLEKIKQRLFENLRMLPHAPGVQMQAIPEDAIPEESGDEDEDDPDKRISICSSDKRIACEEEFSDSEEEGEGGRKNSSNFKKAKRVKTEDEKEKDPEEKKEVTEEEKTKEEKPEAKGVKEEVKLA

| IC50 (HDAC2 [4]) [µM] | IC50 (HDAC1 [6]) [nM] | IC50 (HDAC3) [nM] | SMILES | HDAC isoform selectivity [5] | other results |
| --- | --- | --- | --- | --- | --- |
|  |  |  | CC(=O)Nc1ccc(C(=O)Nc2ccccc2N)cc1 [CI-994, 4-(Acetylamino)-N-(2-aminophenyl)benzamide, reference compound] |  | T1/2 (HDAC1 [1]): 74 min; effect on megakaryocyte progenitor cell growth at 1 μM ([2]; 1 μM): significant toxic effect on cell growth; toxicity to human megakaryocyte progenitors at higher concentrations ([2]; particularly at 10 μM and 20 μM): highly toxic; T1/2 (HDAC2 [3]): 190 min |
| 4.44 | 2120 | 376 | CC(=O)Nc1ccc(C(=O)Nc2cccc(F)c2N)cc1 [Compound 4, 4-acetamido-N-(2-amino-3-fluorophenyl)benzamide] | HDAC3 selective compound |  |
| 24.4 | 4560 | 2050 | CC(=O)Nc1ccc(C(=O)Nc2ccc(Cl)cc2N)cc1 [Compound 2, 4-acetamido-N-(2-amino-4-chlorophenyl)benzamide] |  |  |
|  |  |  | Cc1ccc(C(=O)NCCCCCC(=O)Nc2ccc(F)cc2N)cc1 [Repligen 136, N-(6-(2-amino-4-fluorophenylamino)-6-oxohexyl)-4-methylbenzamide, reference compound] |  | AUC Brain [7, 8]: 0.32 µmol·h/L; Cmax Brain [7, 8]: 0.37 µmol/L; concentration in the brain over time [7, 8]: not measurable after 2 hours; half-life ([7]; brain, read-out: T1/2 Brain (converted)): 20.4 min; half-life ([7]; plasma, read-out: T1/2 Plasma (converted)): 82.8 min |
| 4.93 | 2180 | 551 | CC(=O)Nc1ccc(C(=O)Nc2c(N)cccc2F)cc1 [Compound 3, 4-acetamido-N-(2-amino-6-fluorophenyl)benzamide] | HDAC3 selective compound |  |
| > 33 | > 33000 | > 33000 | CC(=O)Nc1ccc(C(=O)Nc2ccc(C(F)(F)F)cc2N)cc1 [Compound 10, 4-acetamido-N-(2-amino-4-(trifluoromethyl)phenyl)benzamide] |  |  |
| 0.304 | 90 | 84 | CC(=O)Nc1ccc(C(=O)Nc2ccccc2N)c(F)c1 [Compound 12, 4-acetamido-N-(2-aminophenyl)-2-fluorobenzamide] |  |  |
| 0.479 | 153 | 106 | CC(=O)Nc1ccc(C(=O)Nc2cc(F)ccc2N)cc1 [Compound 11, 4-acetamido-N-(2-amino-5-fluorophenyl)benzamide] |  |  |

| SMILES | IC50 (HDAC2 [4]) [µM] | IC50 (HDAC1 [6]) [nM] | IC50 (HDAC3) [nM] | HDAC isoform selectivity [5] | other results |
| --- | --- | --- | --- | --- | --- |
| Nc1cc(F)ccc1NC(=O)c1ccc(F)cc1 [Compound 8, N-(2-amino-4-fluorophenyl)-4-fluorobenzamide] | 11.7 | 8260 | 436 | HDAC3 selective compound |  |
